The record followed here is patent publication US20220184222A1, “BICYCLE TOXIN CONJUGATES AND USES THEREOF” (BicycleTx Limited, priority 2019, published 2022).

The test relates to CTG-0848. Put plainly: Champions TumorGraft NSCLC PDX efficacy, model CTG-0848. In kind it is in vivo, Mus musculus. As for the experimental part:
Mice were implanted subcutaneously into the left flank with tumor fragments from one of the various models. After tumors grew to an average of 150-300 mm^3, mice were treated by IV administration Q7Dx4 (n=2) with vehicle or 3 mg/kg of BT5528. Effects on tumor growth were evaluated by measuring percent tumor growth inhibition (% TGI), and the number of complete responders (CR), partial responders (PR), and tumor-free survivors (TFS). Tolerability was assessed by body weight loss, lethality, and clinical signs of adverse treatment-related side effects. Tumor volumes and body weights were measured twice a week.
Dosing solutions of BT5528 […] were pre-formulated. These dosing solutions were stored at −80° C. in the dark. On each day of dosing, a frozen aliquot of each test agent was thawed, stored at 2-8° C. and used for dosing.
The animals used in this study are described below: • Species: Mus musculus • Strain: Athymic Nude-Foxn1^nu (immune-compromised) • Source: Envigo (Indianapolis, Ind., USA) • Number of animals per group: 2 • Age and sex: At least 6-8 weeks of age at start of dosing, female • Weight: At least 18 grams at start of dosing • Acclimation period: 3 days
Stock mice were implanted with tumor cells from Champions TumorGraft® models CTG-0160, CTG-0170, CTG-0178, CTG-0192, CTG-0363, CTG-0808, CTG-0838, CTG-0848, CTG-1212, CTG-1502, CTG-1535, CTG-2011, CTG-2393, CTG-2539 or CTG-2540. After the tumors reached 1000-1500 mm^3, they were harvested and the tumor fragments (approximately 5×5×5 mm^3) were implanted SC in the left flank of the female study mice. Each animal was implanted with a specific passage lot and documented. Tumor growth was monitored twice a week using digital calipers and the tumor volume (TV) was calculated using the formula (0.52×[length×width^2]). When the TV reached an average volume of 150-300 mm^3, animals were matched by tumor size and assigned into Vehicle Control and treatment groups (n=2/group) and dosing was initiated on Day 0. After the initiation of dosing on Day 0, animals were weighed twice per week using a digital scale and TV was measured twice per week and also on the final day of study. The study was completed when the mean tumor volume of Vehicle Control reached 1500 mm^3 or up to Day 60, whichever occurred first.
Beginning on Day 0, animals were observed daily and weighed twice weekly using a digital scale; data including individual and mean gram weights, mean percent weight change versus Day 0 (% vD0) were recorded for each group and % vD0 plotted at study completion. […] Treatment resulting in a mean % vD0>20% and/or >10% mortality was considered above the maximum tolerated dose. Maximum mean % vD0 (weight nadir) for each treatment group was reported at study completion.
Inhibition of tumor growth was determined by calculating the percent TGI (100%×[1−(final MTV−initial MTV of a treated group)/(final MTV−initial MTV of the control group)]). Treatment started on Day 0.
Additional endpoints used to evaluate efficacy were: the number of complete responders (CR), partial responders (PR), and tumor-free survivors (TFS). PRs were considered exclusive of CRs, as were TFS.
Statistical analyses of anti-tumor efficacy were performed using one-way ANOVA followed by Dunnett's multiple comparisons test (GraphPad Prism version 8.2.0). Significant p-values=<0.05.
Animals were dosed according to the schedule on Table 7-1. The study was terminated on Day 27.

Where [1] appears, read: CTG-0848, 3 mg/kg IV Q7Dx4, Day 0-27.

The structures appear in SMILES notation. Starred links: 1 amine or outer side, 2 acyl side, 3 side chain; linkers in the order of their positions; H or OH if unused. Non-standard residues stand in square brackets, D forms with d. Residues, ends and D or L forms follow the SMILES beside them. *: point of attachment. Dolaproine = CO[C@@H]([C@@H]1CCCN1)[C@@H](C)C(=O)O; Dil = CC[C@H](C)[C@H](NC)[C@@H](CC(=O)O)OC; PABC = O=C(OCc1ccc(N[*:1])cc1)[*:2]; X1 = O=C(CCCC(=O)*)ON1C(=O)CCC1=O; X2 = C[C@@H](N*)[C@@H](O)c1ccccc1; Cit = NC(=O)NCCC[C@H](N)C(=O)O; NMeV = CN[C@H](C(=O)O)C(C)C

In general, TGI refers to how far tumour growth fell short of that in controls. For the compound `CC[C@H](C)[C@@H]([C@@H](CC(=O)N1CCC[C@H]1[C@H](OC)[C@@H](C)C(=O)N[C@H](C)[C@@H](O)c1ccccc1)OC)N(C)C(=O)[C@@H](NC(=O)[C@H](C(C)C)N(C)C(=O)OCc1ccc(NC(=O)[C@H](CCCNC(N)=O)NC(=O)[C@@H](NC(=O)CCCC(=O)ON2C(=O)CCC2=O)C(C)C)cc1)C(C)C` [BT5528] (X1-V[Cit][PABC][NMeV]V[Dil][Dolaproine]-X2), for the setting “3 mg/kg Q7Dx4, Day 27”, the “MTV (mean tumor volume)” value is recorded as 512±113 mm^3 and the TGI is 56%. Moreover, under setting [1], the “# CR (complete responders)” value is recorded as 0/0/0, the “# PR (partial responders)” value is listed as 0/0/0 and the “# TFS (tumor-free survivors)” value is 0/0/0. In addition, the “% TGI” value (CTG-0848, 3 mg/kg IV Q7Dx4, Day 27) is 56%. For the same compound, the “Day 27 Tumor Volume Mean TV ± SEM” value (CTG-0848, BT5528 3 mg/kg IV Q7Dx4, Day 27, n=2) turned out to be 512 ± 113 mm^3.
